Read-outs that look alike come from different tables or passages of the source.
What was measured:
Assay type in all cases: cell-based, human
XG12 myeloma cell line = assay: Cell proliferation assay (tritiated thymidine incorporation), XG12; conditions: for IC50: Homo sapiens; for IC10: XG12, concentration yielding 10% inhibition of proliferation
Protocol: (§1) Myeloma cells were harvested in the exponential growth phase (at day 3 after culture passage when the cell concentration is around 5×10^5 cells/ml). Cells were washed twice, cultured for 3 hours in RPMI1640 and 10% FCS, washed twice. This makes it possible to remove cell-bound growth factors (in particular recombinant IL-6). Then cells are plated in 96-well flat-bottomed microplates at various concentrations depending on their doubling time: • 5×10^3 cells/well in 100 μl for the cell lines: XG-1, XG-7 • 10^4 cells/well in […] for the cell lines: XG-2, XG-4, XG-6, XG-11, PRMI8226, L363 • 2×10^4 cells/well in 100 μl for the cell lines: XG-3, XG-12, XG-13, XG-14, XG-19, XG-20
(§2) The culture medium used were: • PRMI1640, 10% FCS and 0.5 ng/ml of IL-6 for XG-1, XG-2, XG-3, XG-4, XG-6, XG-7, XG-11, XG-12, XG-13, XG-19, XG-20 cells • X-VIVO20 and 0.5 ng/ml IL-6 for XG-14 cells • PRMI1640 and 10% FCS for RPMI8226 and L363 cells
(§3) The diluted compounds, DMSO or control culture medium were added in 100 μl at the start of the culture. Three culture wells were done for one compound dilution and the experiments were done twice (finally six culture wells for one compound dilution).
(§4) Cells were cultured for 4 days. Eight hours before the end of the culture, 0.5 μCi of tritiated thymidine were added in 50 μl of RPMI1640 and 10% FCS. Cells were then extracted with a cell collector and the thymidine incorporation was determined using a beta cell counter.
(§5) For each experiment, the mean tritiated thymidine incorporations (mean values determined on three culture wells) were plotted against the logarithmic concentrations of the compound. The curves were fitted with exponential regression, which was determined using the concentrations defining the inhibition response (usually 3-4 concentrations).
(§6) The concentrations yielding 50% and 90% inhibition of the proliferation of myeloma cells were determined with these regression curves.
(§7) The concentration yielding 10% (IC10) or 50% (IC50) inhibition of the myeloma cell lines were determined and the data are listed in Table 2.
(§8) Compound A was tested in combination with melphalan or Velcade. Increasing concentration of compound A (0, 0.01, 0.03, 0.12, 0.37, 1.1, 3.1, 10, 30 μM) were applied on 4 myeloma cell lines alone or in combination with Velcade or melphalan at concentration yielding around 10% or 50% inhibition.

XG3 myeloma cell line = assay: Cell proliferation assay (tritiated thymidine incorporation), XG3; conditions: for IC50: Homo sapiens; for IC10: XG3, concentration yielding 10% inhibition of proliferation
Protocol: as §1, §2, §3, §4, §5, §6, §7, §8

XG7 myeloma cell line = assay: Cell proliferation assay (tritiated thymidine incorporation), XG7; conditions: for IC50: Homo sapiens; for IC10: XG7, concentration yielding 10% inhibition of proliferation
Protocol: as §1, §2, §3, §4, §5, §6, §7, §8

L363 myeloma cell line = assay: Cell proliferation assay (tritiated thymidine incorporation), L363; conditions: for IC50: Homo sapiens; for IC10: L363, concentration yielding 10% inhibition of proliferation
Protocol: as §1, §2, §3, §4, §5, §6, §7, §8

Structure (SMILES)	IC50 (XG12 myeloma cell line; XG12, proliferation, read-out: IC50)	IC10 (XG12 myeloma cell line)	IC50 (XG3 myeloma cell line; XG3, proliferation, read-out: IC50)	IC10 (XG3 myeloma cell line)	IC50 (XG7 myeloma cell line; XG7, proliferation, read-out: IC50)	IC10 (XG7 myeloma cell line)	IC50 (L363 myeloma cell line; L-363, L363, proliferation, read-out: IC50)	IC10 (L363 myeloma cell line)	IC50 (XG12 myeloma cell line)	IC50 (XG3 myeloma cell line)	IC50 (XG7 myeloma cell line)	IC50 (L363 myeloma cell line; L-363)
CC(C)C[C@H](NC(=O)[C@H](Cc1ccccc1)NC(=O)c1cnccn1)B(O)O [Velcade, bortezomib]	3.9 nM	1.6 nM	2.2 nM	1.6 nM	3.5 nM	1.4 nM	8.4 nM	4.9 nM	–	–	–	–
N[C@@H](Cc1ccc(N(CCCl)CCCl)cc1)C(=O)O [Melphalan, melphalan]	–	318 nM	–	490 nM	–	409 nM	–	110 nM	1230 nM	1680 nM	1180 nM	457 nM
